This note sets out measurements from patent US9695192B2, “Fused heterocyclic compounds as ion channel modulators” (GILEAD SCIENCES, INC., priority 2011, dated 2017).

Read-outs that look alike come from different tables or passages of the source.

Format in all cases: cell-based
Assay [1] deals with T1, human Nav1.1 (Homo sapiens, UniProt P35498).
T1 construct: expressed in transfected cells; host or cells: HEK293, transient transfection (Qiagen Superfect), α1:β1:β2 at 10:1:1
Put plainly: Nav1.1 use-dependent block, whole-cell voltage clamp, 10 Hz pulse train. To be noted: Chantest conditions, read-out: NAV1.1 UDB-10 HZ % Inhibition.

Assay [2] concerns the target T2, hNav1.2 sodium channel (Homo sapiens, UniProt Q99250).
T2 construct: expressed in transfected cells
Put plainly: Nav1.2 use-dependent block, whole-cell voltage clamp, 10 Hz pulse train. The conditions noted are these: Chantest conditions, read-out: NAV1.2 UDB-10 HZ % Inhibition. The text has this:
Wild-type (WT) cDNA stably transfected in Chinese hamster ovary (CHO) cells is used to record INa. Unless otherwise noted, all reagents are purchased from Sigma-Aldrich (St Louis, Mo., U.S.A.).
Whole-cell voltage-clamp recordings are used to measure the biophysical properties of WT. Briefly, the pipette solution consists of (in mM) 110 CsF, 10 NaF, 20 CsCl, 2 EGTA, 10 HEPES, with a pH of 7.35 and osmolarity of 300 mOsmol/kg. The bath (control) solution contains in (mM): 145 NaCl, 4 KCl, 1.8 CaCl2, 1 MgCl2, 10 dextrose, 10 HEPES, with a pH of 7.35 and osmolarity of 310 mOsmol/kg. Cells are allowed to stabilize for 10 min after establishment of the whole-cell configuration before current is measured. Series resistance is compensated 90% to assure that the command potential is reached within microseconds with a voltage error<2 mV. Leak currents are subtracted by using an online P/4 procedure and all currents are low-pass Bessel filtered at 5 kHz and digitized at 50 kHz.
Tonic block of peak current is measured using a step to −10 mV (20 ms) from a holding potential of −120 mV (0.2 Hz). Use-dependent block of peak current is measured during pulse number 300 of a pulse train (−10 mV, 5 ms, 300 pulses, 10 Hz or 25 Hz) from a holding potential of −120 mV. Currents are then normalized to the peak current recorded in response to the first pulse in each frequency train. For tonic block studies, peak current is evaluated in response to a 20 ms depolarization to −10 mV (0.2 Hz). Two sequential pulse train stimulations are averaged to obtain mean current traces for each recording condition, which are then used for offline subtraction and analysis.
A stock solution of 10 mM compound of Formula I is prepared in 0.1 M HCl or DMSO. A fresh dilution of the compound of Formula I in the bath solution is prepared every experimental day and the pH is readjusted to 7.35 as necessary. The final DMSO concentration was kept at 0.1% in all solutions. Direct application of the perfusion solution to the clamped cell is achieved using the Perfusion Pencil system (Automate, Berkeley, Calif.). Direct cell perfusion is driven by gravity at a flow rate of 350 μL/min using a 250 micron tip. This system sequesters the clamped cell within a perfusion stream and enables complete solution exchange within 1 second. The clamped cell is perfused continuously starting immediately after establishing the whole-cell configuration. Control currents are measured during control solution perfusion.
Solutions are perfused for three minutes prior to current recordings to allow equilibrium (tonic) drug block. Tonic block of peak currents is measured from this steady-state condition. Three sequential current traces are averaged to obtain a mean current for each recording. The mean current traces are utilized for offline analysis.

For assay [3], the target named is wild-type human cardiac sodium channel, hNav1.5 (Homo sapiens, UniProt Q14524). Put plainly: Late INa screening assay (QPatch whole cell patch clamp, tefluthrin-enhanced late sodium current). The conditions noted are these: HEK293 hNav1.5, late INa activated with 10 μM Tefluthrin. The essentials:
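Automated whole-cell patch clamp of HEK293 cells stably expressing hNav1.5 (no β subunits), 23-25 °C. Late current enhanced by 10 μM tefluthrin, 250 ms steps to −20 mV from −120 mV at 0.1 Hz, measured 225-250 ms. Compounds typically 1 μM, three additions over 7-8 min; % block normalised to 0 Na baseline.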

Assay [4] concerns the target hNav1.5 Peak INa (Homo sapiens, UniProt Q14524). Put plainly: Peak INa screening assay (tonic block and use-dependent block). On the procedure:
The assay uses an HEK293 (human embryonic kidney) cell line heterologously expressing the wild-type human cardiac sodium channel, hNav1.5, purchased from Millipore (Billerica, Mass.). No beta subunits were coexpressed with the Na channel alpha subunit. Cells are maintained with standard tissue culture procedures and stable channel expression is maintained with 400 μg/mL Geneticin in the culture medium. […] Experiments are carried out at 23-25° C. […] Currents through open sodium channels are automatically recorded and stored in the Sophion Bioscience Oracle database (Sophion Bioscience, Copenhagen, Denmark). Analysis is performed using QPatch Assay and database software and data are compiled in Excel. Compound stocks are routinely made by the Gilead Sample Bank in plastic vials to 10 mM in dimethyl sulfoxide (DMSO). […] Stocks are sonicated as necessary. […] Compounds are diluted in extracellular solution to 1 μM in glass vials and then transferred to glass well plates before robotic addition to the cells. […] Good separation between the concentrations of test compound to reduce late and peak INa is beneficial to enable separation of the desired effect to reduce late INa-induced electrical and mechanical dysfunction from the undesired effect to reduce peak INa, which can lead to slowing or block of conduction of electrical excitation in the heart. It is contemplated that the compounds of Formula I avoid significant block of peak INa. […] Analysis of peak INa generally requires correction for rundown before determining the % block of peak current by the tested compound. […] Use-dependent block refers to the accumulation of block with increased frequency of channel activation. […] It is therefore expected that reduction of peak INa by compounds of this disclosure will be greater at high heart rates, such as those during tachyarrhythmias, than at normal heart rates. […] The intracellular solution used for the Peak INa assay is the same as outlined for the Late INa assay (see above). […] After establishing the whole cell recording configuration, channels were stimulated to open with low frequency stimulation (0.1 Hz) for 7 minutes so that the recording can be monitored and the extent to which the recording has stabilized can be assessed. […] Both TB and UDB were analyzed by incorporating rundown correction for the peak INa and UDB as calculated by compensating for the small use-dependent effect of the stimulation protocol on peak INa in the absence of compound.

Where [5] appears, read: at 1 μM, 3 Hz stimulation, holding potential −100 mV, read-out: Peak UDB (use-dependent block of peak INa) % Inhibition.
The mark [6] stands for this setting: read-out: Peak TB (tonic block of peak INa) % Inhibition.

Chain of hNav1.5 Peak INa (Q14524 whole entry): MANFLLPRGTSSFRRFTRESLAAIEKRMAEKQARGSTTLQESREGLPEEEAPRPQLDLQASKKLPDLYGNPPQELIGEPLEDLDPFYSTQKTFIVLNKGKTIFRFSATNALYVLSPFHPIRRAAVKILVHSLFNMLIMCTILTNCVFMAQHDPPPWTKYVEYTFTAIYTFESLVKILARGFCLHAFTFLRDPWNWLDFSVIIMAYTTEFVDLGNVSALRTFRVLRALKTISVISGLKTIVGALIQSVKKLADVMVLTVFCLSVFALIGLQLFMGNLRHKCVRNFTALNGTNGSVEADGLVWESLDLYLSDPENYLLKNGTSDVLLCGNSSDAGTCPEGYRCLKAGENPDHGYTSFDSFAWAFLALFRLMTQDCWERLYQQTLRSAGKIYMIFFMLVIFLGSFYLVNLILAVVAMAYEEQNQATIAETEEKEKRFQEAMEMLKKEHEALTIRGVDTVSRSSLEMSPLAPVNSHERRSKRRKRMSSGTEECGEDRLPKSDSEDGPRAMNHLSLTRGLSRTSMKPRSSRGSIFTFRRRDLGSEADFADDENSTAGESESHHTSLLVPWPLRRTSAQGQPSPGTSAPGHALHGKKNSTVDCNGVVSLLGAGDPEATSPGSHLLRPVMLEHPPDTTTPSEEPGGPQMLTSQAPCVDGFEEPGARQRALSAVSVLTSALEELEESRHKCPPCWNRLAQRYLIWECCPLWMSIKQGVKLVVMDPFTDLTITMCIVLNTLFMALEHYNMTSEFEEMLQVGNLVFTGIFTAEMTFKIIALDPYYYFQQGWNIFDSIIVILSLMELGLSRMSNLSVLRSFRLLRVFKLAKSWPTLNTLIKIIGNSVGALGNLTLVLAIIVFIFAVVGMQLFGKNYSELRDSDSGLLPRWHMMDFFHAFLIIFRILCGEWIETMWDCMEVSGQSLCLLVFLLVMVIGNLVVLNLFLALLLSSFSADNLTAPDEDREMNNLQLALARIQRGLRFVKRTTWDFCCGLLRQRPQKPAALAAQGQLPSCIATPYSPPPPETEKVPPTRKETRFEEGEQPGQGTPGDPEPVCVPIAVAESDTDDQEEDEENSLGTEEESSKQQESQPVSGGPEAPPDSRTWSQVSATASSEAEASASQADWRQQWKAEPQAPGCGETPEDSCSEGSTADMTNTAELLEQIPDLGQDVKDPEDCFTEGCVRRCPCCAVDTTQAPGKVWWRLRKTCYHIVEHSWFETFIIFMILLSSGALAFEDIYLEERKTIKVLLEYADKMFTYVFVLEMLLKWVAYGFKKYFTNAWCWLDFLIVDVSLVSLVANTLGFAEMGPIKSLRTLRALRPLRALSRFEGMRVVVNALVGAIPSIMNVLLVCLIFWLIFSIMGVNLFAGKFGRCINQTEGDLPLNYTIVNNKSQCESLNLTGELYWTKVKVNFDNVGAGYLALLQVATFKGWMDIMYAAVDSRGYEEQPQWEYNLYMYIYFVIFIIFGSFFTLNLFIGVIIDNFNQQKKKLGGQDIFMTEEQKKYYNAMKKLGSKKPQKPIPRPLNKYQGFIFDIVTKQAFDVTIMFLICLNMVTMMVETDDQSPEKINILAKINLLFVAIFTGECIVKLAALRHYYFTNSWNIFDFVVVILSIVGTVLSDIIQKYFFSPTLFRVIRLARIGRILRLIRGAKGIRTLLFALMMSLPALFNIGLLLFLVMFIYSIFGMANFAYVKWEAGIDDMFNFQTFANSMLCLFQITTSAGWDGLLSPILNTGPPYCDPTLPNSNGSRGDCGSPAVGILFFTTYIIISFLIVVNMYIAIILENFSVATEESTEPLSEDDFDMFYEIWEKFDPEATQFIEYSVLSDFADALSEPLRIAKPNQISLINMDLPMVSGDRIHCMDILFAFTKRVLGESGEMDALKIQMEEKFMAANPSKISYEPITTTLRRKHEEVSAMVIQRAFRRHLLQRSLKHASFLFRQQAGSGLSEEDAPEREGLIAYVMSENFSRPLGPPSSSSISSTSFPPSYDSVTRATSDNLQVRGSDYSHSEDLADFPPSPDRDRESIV
Chain of wild-type human cardiac sodium channel, hNav1.5 (Q14524 whole entry): as above

As for `FC(F)(F)c1ccc(-c2ccc3c(c2)-c2nccn2CCO3)cc1` [Compound I-1, 10-(4-(trifluoromethyl)phenyl)-5,6-dihydrobenzo[f]imidazo[1,2-d][1,4]oxazepine], the inhibition at 1 µM in assay [1] was -12%; in assay [2] it was 2%; in assay [3], 32%.
On the same counts, the results for `FC(F)(F)Oc1ccc(-c2ccc3c(c2)-c2nccn2CCO3)cc1` [Compound I-2, 10-(4-(trifluoromethoxy)phenyl)-5,6-dihydrobenzo[f]imidazo[1,2-d][1,4]oxazepine] are 1%, 18% and 31%.
On the same counts, the results for `Cc1cnc2n1CCOc1ccc(-c3ccc(C(F)(F)F)cc3)cc1-2` [Compound I-6, 3-methyl-10-(4-(trifluoromethyl)phenyl)-5,6-dihydrobenzo[f]imidazo[1,2-d][1,4]oxazepine] are -10%, -3% and 28%.
On the same counts, the results for `FC(F)(F)c1ccc(-c2ccc3c(c2)-c2ncc(C4CC4)n2CCO3)cc1` [Compound I-9, 3-cyclopropyl-10-(4-(trifluoromethyl)phenyl)-5,6-dihydrobenzo[f]imidazo[1,2-d][1,4]oxazepine] are 4%, 0% and 4%.
In the case of `CC(C)(O)c1cnc2n1CCOc1ccc(-c3ccc(C(F)(F)F)cc3)cc1-2` [Compound I-10, 2-(10-(4-(trifluoromethyl)phenyl)-5,6-dihydrobenzo[f]imidazo[1,2-d][1,4]oxazepin-3-yl)propan-2-ol], the inhibition at 1 µM was -5% in assay [1], 0% in assay [2] and 10% in assay [3].
On the same counts, the results for `FC(F)(F)c1ccc(-c2ccc3c(c2)-c2ncc(Cc4ccccc4)n2CCO3)cc1` [Compound I-11, 3-benzyl-10-(4-(trifluoromethyl)phenyl)-5,6-dihydrobenzo[f]imidazo[1,2-d][1,4]oxazepine] are -5%, -5% and 13%.
On the same counts, the results for `FC(F)(F)c1ccc(-c2ccc3c(c2)-c2ncc(Br)n2CCO3)cc1` [Compound I-12, 3-bromo-10-(4-(trifluoromethyl)phenyl)-5,6-dihydrobenzo[f]imidazo[1,2-d][1,4]oxazepine] are -7%, 6% and 4%.
Take `FC(F)(F)c1ccc(-c2ccc3c(c2)-c2ncc(Cl)n2CCO3)cc1` [Compound I-13, 3-chloro-10-(4-(trifluoromethyl)phenyl)-5,6-dihydrobenzo[f]imidazo[1,2-d][1,4]oxazepine]: the inhibition at 1 µM in assay [1] is -3%; in assay [2], 8%; in assay [3], 6%.
For `FC(F)(F)c1ccc(-c2ccc3c(c2)C(NCC2CC2)=NCCO3)cc1` [II-11, N-(cyclopropylmethyl)-7-(4-(trifluoromethyl)phenyl)-2,3-dihydrobenzo[f][1,4]oxazepin-5-amine], the inhibition at 1 µM in assay [4] (setting [5]) was found to be 31%; in assay [4] (setting [6]), 11%; in assay [3], 41%.
`CN(C)[C@H]1CCN(C2=NCCOc3ccc(-c4ccc(C(F)(F)F)cc4)cc32)C1` [II-15, (S)—N,N-dimethyl-1-(7-(4-(trifluoromethyl)phenyl)-2,3-dihydrobenzo[f][1,4]oxazepin-5-yl)pyrrolidin-3-amine]: the inhibition at 1 µM in assay [4] (setting [5]) was 27%; in assay [4] (setting [6]), 16%; in assay [3], 49%.
`FC(F)(F)c1ccc(-c2ccc3c(c2)C(NCCOc2ccccn2)=NCCO3)cc1` [II-20, N-(2-(pyridin-2-yloxy)ethyl)-7-(4-(trifluoromethyl)phenyl)-2,3-dihydrobenzo[f][1,4]oxazepin-5-amine]: the values for the inhibition at 1 µM in assay [4] (setting [5]), in assay [4] (setting [6]) and in assay [3] were 89%, 30% and 59%, respectively.
On to `FC(F)(F)c1ccc(-c2ccc3c(c2)C(NCCOc2ccccc2)=NCCO3)cc1` [II-22, N-(2-phenoxyethyl)-7-(4-(trifluoromethyl)phenyl)-2,3-dihydrobenzo[f][1,4]oxazepin-5-amine], for which the inhibition at 1 µM in assay [4] (setting [5]) was determined as 69%; in assay [4] (setting [6]) it was 19%; in assay [3] it was 60%.
Take `CC(C)(C)OC(=O)N1CC[C@H](NC2=NCCOc3ccc(-c4ccc(C(F)(F)F)cc4)cc32)C1` [II-43, (S)-tert-butyl 3-(7-(4-(trifluoromethyl)phenyl)-2,3-dihydrobenzo[f][1,4]oxazepin-5-ylamino)pyrrolidine-1-carboxylate]: the values for the inhibition at 1 µM in assay [4] (setting [5]), in assay [4] (setting [6]) and in assay [3] were 31%, 12% and 46%, respectively.
On the same counts, the results for `FC(F)(F)c1ccc(-c2ccc3c(c2)C(N2CCC(c4ccccn4)C2)=NCCO3)cc1` (stereo not drawn) [II-60, 5-(3-(pyridin-2-yl)pyrrolidin-1-yl)-7-(4-(trifluoromethyl)phenyl)-2,3-dihydrobenzo[f][1,4]oxazepine] are 25%, 10% and 42%.
On the same counts, the results for `CC(C)(C)OC(=O)N1CCC(NC2=NCCOc3ccc(-c4ccc(C(F)(F)F)cc4)cc32)C1` (stereo not drawn) [II-62, tert-butyl 3-(7-(4-(trifluoromethyl)phenyl)-2,3-dihydrobenzo[f][1,4]oxazepin-5-ylamino)pyrrolidine-1-carboxylate] are 32%, 8% and 43%.
For `CC(C)(C)OC(=O)N1CC[C@@H](NC2=NCCOc3ccc(-c4ccc(C(F)(F)F)cc4)cc32)C1` [II-63, (R)-tert-butyl 3-(7-(4-(trifluoromethyl)phenyl)-2,3-dihydrobenzo[f][1,4]oxazepin-5-ylamino)pyrrolidine-1-carboxylate], the inhibition at 1 µM is 31% in assay [4] (setting [5]), 12% in assay [4] (setting [6]) and 51% in assay [3].
